# Values quoted from earlier work in patent US5053431A, “Derivatives of chrysophanol as topoisomerase II inhibitors” (Sloan-Kettering Institute For Cancer Research, priority 1990, dated 1991).
# Tested on: proteins, polyadenylate, RNA, DNA
# Details: literature; cited from earlier work
smiles,measurement,value
"Cc1c2c(c(C)c3c[n+](C)ccc13)C1=CC(=O)C=CC1=N2 [9-oxo-NME, 9-oxo-2-methylellipticinium]",alkylation of macromolecules,easily alkylated by 9-oxo-NME
